The text below walks through data of publication PMC9078821, “The synthesis of axially disubstituted silicon phthalocyanines, their quaternized derivatives and first inhibitory effect on human cytosolic carbonic anhydrase isozymes hCA I and II” (RSC Advances, 2018).

Test [1] deals with T1, hCA I (Homo sapiens, UniProt P00915).
T1 construct: from tissue; host or cells: human erythrocytes (fresh human blood)
As to the kind of experiment: Esterase activity assay with 4-nitrophenylacetate as substrate, hCA I. Type of test: biochemical. As to conditions: for IC50: 4-nitrophenylacetate substrate, pH 7.4, 25 °C, enzyme purified from human erythrocytes, errors 2–5%, three assays; for hCA I inhibition, result in words: ranking within the series. The method, then: (§1) Erythrocytes were purified from fresh human blood obtained from the Blood Centre of the Research Hospital at Atatürk University. The blood samples were centrifuged at 1500 rpm for 15 min and the plasma and buffy coat were removed. The red cells were isolated and washed twice with 0.9% NaCl, and hemolyzed with 1.5 volumes of ice-cold water. The ghost and intact cells were removed by centrifugation at 20 000 rpm for 30 min at 4 °C. The pH of the hemolysate was adjusted to 8.7 with solid Tris.[27] […] The affinity gel was washed with 25 mM Tris–HCl/22 mM Na2SO4 (pH 8.7). The human carbonic anhydrase (hCA I and hCA II) isozymes were eluted with 1 M NaCl/25 mM Na2HPO4 (pH 6.3) and 0.1 M CH3COONa/0.5 M NaClO4 (pH 5.6), respectively. All procedures were performed at 4 °C.[27]
(§2) Carbonic anhydrase activity was assayed by following the change in absorbance at 348 nm of 4-nitrophenylacetate (NPA) to 4-nitrophenylate ion over a period of 3 min at 25 °C using a spectrophotometer (Shimadzu UV-1800) according to the method described by Verpoorte et al.[28] The enzymatic reaction, in a total volume of 3.0 mL, contained 1.4 mL 0.05 M Tris–SO4 buffer (pH 7.4), 1 mL 3 mM 4-nitrophenylacetate, 0.5 mL H2O and 0.1 mL enzyme solution. A reference measurement was obtained by preparing the same cuvette without enzyme solution. The inhibitory effects of compounds were examined. All compounds were tested in triplicate at each concentration used. Different inhibitor concentrations were used. Control cuvette activity in the absence of inhibitor was taken as 100%. For each inhibitor an activity (%)–[inhibitor] graphs were drawn.[29]

Test [2] concerns the target T2, hCA II (Homo sapiens, UniProt P00918).
T2 construct: from tissue; host or cells: human erythrocytes (fresh human blood)
As to the kind of experiment: Esterase activity assay with 4-nitrophenylacetate as substrate, hCA II. Type of test: biochemical. The following applies: 4-nitrophenylacetate substrate, pH 7.4, 25 °C, enzyme purified from human erythrocytes, errors 2–5%, three assays. The method, then:
as §1, §2

One may read the IC50 as the point on the concentration scale where inhibition reaches its midpoint.

T1 sequence (P00915 whole entry): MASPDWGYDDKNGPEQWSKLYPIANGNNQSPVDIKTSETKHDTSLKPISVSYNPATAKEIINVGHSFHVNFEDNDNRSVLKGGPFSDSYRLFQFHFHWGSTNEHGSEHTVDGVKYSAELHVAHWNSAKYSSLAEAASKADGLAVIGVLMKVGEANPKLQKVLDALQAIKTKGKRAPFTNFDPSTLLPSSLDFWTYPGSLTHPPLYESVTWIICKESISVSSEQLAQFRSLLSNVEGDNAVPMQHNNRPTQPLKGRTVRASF

Regarding `CCN(CC)c1cccc(OCCOCCO[Si]2(OCCOCCOc3cccc(N(CC)CC)c3)n3c4c5ccccc5c3N=C3N=C(N=c5c6ccccc6c(n52)=NC2=NC(=N4)c4ccccc42)c2ccccc23)c1` [ZM-5-Si], the results for the IC50 in test [1] and in test [2] were 0.084 µM and 0.0762 µM, respectively.

Take `CN(C)c1ccc(/C=C/C(=O)c2ccc(O[Si]3(Oc4ccc(C(=O)/C=C/c5ccc(N(C)C)cc5)cc4)n4c5c6ccccc6c4N=C4N=C(N=c6c7ccccc7c(n63)=NC3=NC(=N5)c5ccccc53)c3ccccc34)cc2)cc1` [ZT-Si, Bis[(2E)-3-[4-(dimethylamino)phenyl]-1-(4-phenoxy)prop-2-en-1-one]phthalocyaninato silicon(IV)]: the IC50 in test [1] turned out to be 0.0178 µM; in test [2], 0.0172 µM. In test [1], the “hCA I inhibition, result in words” value was “among the best inhibitors”.

`c1ccc2c(c1)C1=NC2=Nc2c3ccccc3c3n2[Si](OCc2cc(OCCN4CCOCC4)cc(OCCN4CCOCC4)c2)(OCc2cc(OCCN4CCOCC4)cc(OCCN4CCOCC4)c2)n2c(c4ccccc4c2=NC2=NC(=N3)c3ccccc32)=N1` [ZM-1-Si]: the IC50 was 0.165 µM in test [1] and 0.121 µM in test [2]. Besides, in test [1], the “hCA I inhibition, result in words” value is recorded as “moderately inhibited”.

Consider `CC[N+](C)(CC)c1cccc(OCCOCCO[Si]2(OCCOCCOc3cccc([N+](C)(CC)CC)c3)n3c4c5ccccc5c3N=C3N=C(N=c5c6ccccc6c(n52)=NC2=NC(=N4)c4ccccc42)c2ccccc23)c1` [ZM-5-SiQ], for which the IC50 in test [1] worked out at 0.0243 µM; in test [2] it was 0.0363 µM.

Consider `C[N+]1(CCOc2cc(CO[Si]3(OCc4cc(OCC[N+]5(C)CCOCC5)cc(OCC[N+]5(C)CCOCC5)c4)n4c5c6ccccc6c4N=C4N=C(N=c6c7ccccc7c(n63)=NC3=NC(=N5)c5ccccc53)c3ccccc34)cc(OCC[N+]3(C)CCOCC3)c2)CCOCC1` [ZM-1-SiQ], for which the IC50 in test [1] turned out to be 0.071 µM; in test [2] it was 0.0544 µM.
